The test system of assay [1] is Mus musculus. The assay is described as follows: % Pu(IV) excreted at 0-4 hr in urine under the effect of 30uM/kg(po, gastric intubation) of ligand administered 3 min after iv injection of Pu(IV) citrate. It counts as functional.
Assay [2] deals with Mus musculus. The assay is described as follows: % Pu(IV) excreted at 4-24 hr in urine under the effect of 30uM/kg(po, gastric intubation) of ligand administered 3 min after iv injection of Pu(IV) citrate.
For assay [3], the system named is Mus musculus. The assay is described as follows: Percent of Pu(IV) excreted after 24 hours in urine under the effect of 30 umol/kg (i.p.) of ligand administered 1 hr after iv injection of Pu(IV) citrate. Type of assay: functional.
Assay [4] deals with Mus musculus. The assay is described as follows: Percent of Pu(IV) retained after 24 hours in whole body of mice under the effect of 30 umol/kg (i.p.) of ligand administered 1 hr after iv injection of Pu(IV) citrate. Type of assay: functional.
The subject of assay [5] is Mus musculus. Put plainly: % Pu(IV) retained after 24 hours in skeleton of mice under the effect of 30uM/kg(po, gastric intubation) of ligand administered 3 min after iv injection of Pu(IV) citrate. It counts as functional.
Assay [6] concerns Mus musculus. The assay is described as follows: Percent of Pu(IV) excreted after 24 hours in GI contents and feces under the effect of 30 umol/kg (i.p.) of ligand administered 1 hr after iv injection of Pu(IV) citrate. Type of assay: functional.
Assay [7] deals with Mus musculus. Put plainly: Percent of Pu(IV) retained after 24 hours in kidneys of mice under the effect of 30 umol/kg (i.p.) of ligand administered 1 hr after iv injection of Pu(IV) citrate. It counts as functional, Kidney.
The test system of assay [8] is Mus musculus. Put plainly: Percent of Pu(IV) retained after 24 hours in soft tissue of mice under the effect of 30 umol/kg (i.p.) of ligand administered 1 hr after iv injection of Pu(IV) citrate. It counts as functional.
The test system of assay [9] is Mus musculus. The assay is described as follows: Percent of Pu(IV) retained after 24 hours in skeleton of mice under the effect of 30 umol/kg (i.p.) of ligand administered 1 hr after iv injection of Pu(IV) citrate. Type of assay: functional.
Assay [10] concerns Mus musculus. The assay is described as follows: Percent of Pu(IV) retained after 24 hours in liver of mice under the effect of 30 umol/kg (i.p.) of ligand administered 1 hr after iv injection of Pu(IV) citrate. Type of assay: functional.
Assay [11] has as its system Mus musculus. The assay is described as follows: % Pu(IV) retained after 24 hours in liver of mice under the effect of 30uM/kg(po, gastric intubation) of ligand administered 3 min after iv injection of Pu(IV) citrate. Type of assay: functional.
In assay [12] the test system is Mus musculus. Put plainly: % Pu(IV) retained after 24 hours in soft tissue of mice under the effect of 30uM/kg(po, gastric intubation) of ligand administered 3 min after iv injection of Pu(IV) citrate. Type of assay: functional.
The subject of assay [13] is Mus musculus. The assay is described as follows: % Pu(IV) retained after 24 hours in kidneys of mice under the effect of 30uM/kg(po, gastric intubation) of ligand administered 3 min after iv injection of Pu(IV) citrate. Type of assay: functional, Kidney.
Assay [14] has as its system Mus musculus. The assay is described as follows: %Pu(IV) excreted after 24 hr in GI contents and feces under the effect of 30uM/kg(po, gastric intubation) of ligand administered 3 min after iv injection of Pu(IV) citrate. Type of assay: functional.
Assay [15] deals with Mus musculus. Put plainly: % Pu(IV) retained after 24 hr in whole body of mice under the effect of 30uM/kg(po, gastric intubation) of ligand administered 3 min after iv injection of Pu(IV) citrate. It counts as functional.

Turning to `O=C(NCCCN(CCCCN(CCCNC(=O)c1cccc(=O)n1O)C(=O)c1cccc(=O)n1O)C(=O)c1cccc(=O)n1O)c1cccc(=O)n1O`, the ID with Mus musculus [1] was determined as 23%; in the assay with Mus musculus [2], 2.7%; in the assay with Mus musculus [3], 25%; in the assay with Mus musculus [4], 18%; with Mus musculus [5], 12%; in the assay on Mus musculus [6], 57%. In addition, the ID in the assay with Mus musculus [7] was 0.2%; with Mus musculus [8], 1.6%; in the assay on Mus musculus [9], 7.5%; in the assay with Mus musculus [10], 8.9%; in the assay with Mus musculus [11], 11%; in the assay on Mus musculus [12] it was 13%. For the same compound, the ID in the assay with Mus musculus [13] is recorded as 0.1%; in the assay on Mus musculus [14], 51%; with Mus musculus [15], 24%.
Consider `Cn1ccc(C(=O)NCCN(CCCCN(CCNC(=O)c2ccn(C)c(=O)c2O)CCNC(=O)c2ccn(C)c(=O)c2O)CCNC(=O)c2ccn(C)c(=O)c2O)c(O)c1=O`, for which the ID in the assay with Mus musculus [1] was determined as 20%; in the assay on Mus musculus [2], 39%; in the assay on Mus musculus [3], 47%; in the assay with Mus musculus [4] it was 29%; in the assay on Mus musculus [5], 13%; in the assay with Mus musculus [6], 25%. Further, the ID with Mus musculus [7] was 1.8%; in the assay with Mus musculus [8], 2.1%; in the assay with Mus musculus [9], 11%; with Mus musculus [10], 14%; in the assay on Mus musculus [11], 17%; with Mus musculus [12], 1.8%. Besides, the ID came to 1.3% in the assay with Mus musculus [13], 8.6% in the assay on Mus musculus [14] and 32% in the assay with Mus musculus [15].
For the compound `Cn1ccc(C(=O)NCCCCCNC(=O)c2ccn(C)c(=O)c2O)c(O)c1=O`, the ID in the assay with Mus musculus [1] came out at 10%; with Mus musculus [2], 13%; with Mus musculus [3] it was 18%; in the assay with Mus musculus [4], 16%; in the assay with Mus musculus [5] it was 24%; in the assay on Mus musculus [6], 67%. For the same compound, the ID is 0.3% with Mus musculus [7]; 1.9% with Mus musculus [8]; 10% in the assay on Mus musculus [9]; 3.1% in the assay with Mus musculus [10]; 25% with Mus musculus [11]; 3.2% with Mus musculus [12]. For the same compound, the ID in the assay with Mus musculus [13] turned out to be 0.8%; in the assay with Mus musculus [14], 22%; in the assay on Mus musculus [15], 54%.
For `Cn1ccc(C(=O)NCCCN(CCCNC(=O)c2ccn(C)c(=O)c2O)CCCNC(=O)c2ccn(C)c(=O)c2O)c(O)c1=O`, the ID in the assay with Mus musculus [1] was 1.8%; with Mus musculus [2], 3.6%; with Mus musculus [3] it was 55%; in the assay on Mus musculus [4] it was 33%; in the assay with Mus musculus [5], 28%; with Mus musculus [6] it was 12%. The ID in the assay with Mus musculus [7] is reported as 0.7%; in the assay on Mus musculus [8], 2%; with Mus musculus [9], 14%; in the assay on Mus musculus [10] it was 17%; with Mus musculus [11] it was 28%; in the assay on Mus musculus [12], 4.3%. Also, the ID in the assay on Mus musculus [13] is recorded as 0.7%; in the assay with Mus musculus [14], 36%; with Mus musculus [15], 60%.
Turning to `Cn1ccc(C(=O)NCCN(CCCN(CCNC(=O)c2ccn(C)c(=O)c2O)CCNC(=O)c2ccn(C)c(=O)c2O)CCNC(=O)c2ccn(C)c(=O)c2O)c(O)c1=O`, the ID in the assay on Mus musculus [1] is reported as 16%; in the assay on Mus musculus [2], 33%; in the assay on Mus musculus [3] it was 34%; with Mus musculus [4], 24%; with Mus musculus [5] it was 13%; in the assay with Mus musculus [6], 41%. Further, the ID in the assay with Mus musculus [7] amounted to 1.6%; in the assay on Mus musculus [8], 2.7%; with Mus musculus [9], 9.9%; in the assay on Mus musculus [10], 10%; in the assay on Mus musculus [11], 13%; in the assay with Mus musculus [12], 3.1%. For the same compound, the ID in the assay on Mus musculus [13] is given as 1.2%; in the assay with Mus musculus [14], 22%; with Mus musculus [15], 30%.
For the compound `Cn1ccc(C(=O)NCCCNC(=O)c2ccn(C)c(=O)c2O)c(O)c1=O`, the ID was 16% with Mus musculus [1]; 11% in the assay on Mus musculus [2]; 32% in the assay with Mus musculus [3]; 27% in the assay with Mus musculus [4]; 27% with Mus musculus [5]; 41% in the assay with Mus musculus [6]. In addition, the ID is reported as 0.5% in the assay on Mus musculus [7]; 2.6% in the assay with Mus musculus [8]; 14% in the assay on Mus musculus [9]; 9.5% with Mus musculus [10]; 33% in the assay with Mus musculus [11]; 5% with Mus musculus [12]. Further, the ID worked out at 0.8% in the assay on Mus musculus [13], 7.9% with Mus musculus [14] and 66% in the assay with Mus musculus [15].
`Cn1ccc(C(=O)NCCN(CCNC(=O)c2ccn(C)c(=O)c2O)CCN(CCNC(=O)c2ccn(C)c(=O)c2O)CCNC(=O)c2ccn(C)c(=O)c2O)c(O)c1=O`: the ID in the assay with Mus musculus [1] came out at 12%; with Mus musculus [2], 27%; in the assay on Mus musculus [3], 36%; in the assay with Mus musculus [4], 19%; in the assay on Mus musculus [5], 11%; in the assay with Mus musculus [6] it was 45%. Besides, the ID is reported as 1.3% in the assay with Mus musculus [7]; 2.8% with Mus musculus [8]; 11% in the assay on Mus musculus [9]; 3.8% with Mus musculus [10]; 7.6% with Mus musculus [11]; 4% in the assay with Mus musculus [12]. Further, the ID turned out to be 0.4% with Mus musculus [13], 38% with Mus musculus [14] and 23% with Mus musculus [15].
Consider `O=C(NCc1cc(CNC(=O)c2cccc(=O)n2O)cc(CNC(=O)c2cccc(=O)n2O)c1)c1cccc(=O)n1O`, for which the ID in the assay with Mus musculus [3] worked out at 9.6%; in the assay on Mus musculus [4], 47%; with Mus musculus [6], 43%; with Mus musculus [7], 1.8%; with Mus musculus [8], 10%; in the assay on Mus musculus [9] it was 17%. Besides, the ID with Mus musculus [10] is on record as 18%.
For the compound `Cn1ccc(C(=O)NCCN(CCNC(=O)c2ccn(C)c(=O)c2O)CCNC(=O)c2ccn(C)c(=O)c2O)c(O)c1=O`, the ID in the assay on Mus musculus [1] turned out to be 21%; in the assay with Mus musculus [2], 21%; in the assay with Mus musculus [3] it was 35%; in the assay on Mus musculus [4], 20%; in the assay on Mus musculus [5], 13%; with Mus musculus [6] it was 45%. Also, the ID is recorded as 0.7% in the assay with Mus musculus [7]; 2.7% with Mus musculus [8]; 11% with Mus musculus [9]; 5.5% with Mus musculus [10]; 8.5% in the assay on Mus musculus [11]; 1.9% in the assay on Mus musculus [12]. The ID stood at 0.7% in the assay on Mus musculus [13], 34% in the assay with Mus musculus [14] and 25% in the assay on Mus musculus [15].
As for `CC(=O)N(O)CCCCCNC(=O)CCC(=O)N(O)CCCCCNC(=O)CCC(=O)N(O)CCCCCNC(=O)c1ccn(C)c(=O)c1O`, the ID is 2.4% in the assay with Mus musculus [1]; 20% in the assay with Mus musculus [2]; 21% in the assay with Mus musculus [3]; 53% in the assay on Mus musculus [4]; 20% in the assay with Mus musculus [5]; 26% with Mus musculus [6]. The ID in the assay on Mus musculus [7] worked out at 3%; in the assay on Mus musculus [8] it was 19%; in the assay with Mus musculus [9], 17%; with Mus musculus [10], 13%; with Mus musculus [11], 22%; with Mus musculus [12], 15%. Moreover, the ID in the assay with Mus musculus [13] turned out to be 2.4%; in the assay with Mus musculus [14], 17%; in the assay with Mus musculus [15], 60%.
On to `Cn1ccc(C(=O)NCCCCNC(=O)c2ccn(C)c(=O)c2O)c(O)c1=O`, for which the ID with Mus musculus [1] stood at 26%; in the assay on Mus musculus [2] it was 8.8%; with Mus musculus [3], 19%; in the assay with Mus musculus [4], 17%; with Mus musculus [5] it was 17%; in the assay on Mus musculus [6], 63%. Further, the ID is reported as 0.4% in the assay with Mus musculus [7]; 1.9% with Mus musculus [8]; 11% in the assay on Mus musculus [9]; 3.7% in the assay with Mus musculus [10]; 34% with Mus musculus [11]; 3.2% in the assay on Mus musculus [12]. Also, the ID worked out at 0.5% with Mus musculus [13], 11% in the assay with Mus musculus [14] and 55% with Mus musculus [15].
Consider `Cn1ccc(C(=O)NCCOCCNC(=O)c2ccn(C)c(=O)c2O)c(O)c1=O`, for which the ID with Mus musculus [1] was 14%; in the assay on Mus musculus [2], 7.8%; in the assay on Mus musculus [3] it was 28%; with Mus musculus [4], 16%; with Mus musculus [5], 18%; in the assay on Mus musculus [6], 56%. For the same compound, the ID in the assay on Mus musculus [7] came to 0.3%; in the assay with Mus musculus [8], 1.7%; in the assay with Mus musculus [9] it was 11%; with Mus musculus [10] it was 2.7%; in the assay on Mus musculus [11], 11%; in the assay on Mus musculus [12], 2.9%. Also, the ID in the assay on Mus musculus [13] was 0.8%; in the assay with Mus musculus [14] it was 46%; in the assay with Mus musculus [15], 34%.

The values above are taken from ChEMBL document CHEMBL1128431, “Specific sequestering agents for the actinides. 28. Synthesis and initial evaluation of multidentate 4-carbamoyl-3-hydroxyl-1-methyl-2(1H)-pyridinone ligands for in vivo plutonium(IV) chelation” (1995).
